How the values were obtained:
LNCaP cells = test: MTT assay, LNCaP cells; format: cell-based, human; conditions: Homo sapiens, LNCaP; prostate cancer cells; 48 h of treatment; mean ± SD
Protocol: (§1) The human prostate cancer cell lines PC-3, DU145, 22Rv1 and LNCaP, as well as human prostate non-cancer cell line PNT2 were purchased from ATCC (Manassas, VA, USA). HEK 293T (human embryonic kidney cells) and MRC-9 (human fibroblast cells) cell lines were purchased from ECACC (Salisbury, UK). […] Authentication of all cell lines used was recently performed by a commercial service (Multiplexion GmbH, Heidelberg, Germany).
(§2) Cells were cultured as monolayers at 37 °C in a humidified atmosphere with 5% (v/v) CO2 in the correspondent culture medium: 10% FBS/RPMI medium (RPMI medium supplemented with Glutamax^TM-I (gibco® Life technologies^TM, Paisley, UK) containing 10% fetal bovine serum (FBS, gibco® Life technologies^TM) and 1% penicillin/streptomycin (Invitrogen)) for PNT2, LNCaP, 22Rv1, PC-3 and DU145 and cells; 10% FBS/DMEM medium (DMEM medium supplemented with Glutamax^TM-I (gibco® Life technologies^TM) containing 10% FBS and 1% penicillin/streptomycin (gibco® Life technologies^TM)) for MRC-9 and HEK 293 cells. Cells were continuously kept in culture for a maximum of 3 months, and were regularly checked for stable phenotype and mycoplasma infection.
(§3) Effect of the drugs on cell viability in terms of metabolic activity was assessed by MTT assay, as previously reported. Cells were pre-incubated overnight in 96-well plates (6 × 10^3 cells/well in 100 μL/well) in the correspondent culture media. Then, the medium was replaced with fresh 10% FBS/RPMI medium containing the investigated compounds (100 μL/well), and cells were incubated for 48 h, unless otherwise stated. Next, 10 μL/well of (3-(4,5-dimethylthiazol-2-yl)-2,5-diphenyltetrazolium bromide) reagent (MTT, 5 mg/mL) was added. After 2–4 h of incubation, the media was aspirated and the plates were dried. Then, 50 μL/well of DMSO was added to each well and the cell viability was measured using an Infinite F200PRO reader (TECAN, Männedorf, Switzerland). Results were calculated using the GraphPad Prism software v.9.1.1 (GraphPad Software, San Diego, CA, USA) and are represented as IC50 of the compounds calculated using the cells treated with the solvent alone as a control.

HEK-293 cells = test: MTT assay, HEK-293 cells; format: cell-based, human; conditions: Homo sapiens, HEK293; non-cancer cells; 48 h of treatment; mean ± SD
Protocol: as §1, §2, §3

22Rv1 cells [1] = test: DNA fragmentation (apoptosis, sub-G1), flow cytometry with PI staining; format: cell-based, human; conditions: treated at IC50 (MTT assay) for 48 h, mean ± SD
Protocol: (§4) The effects on cell cycle progression and DNA fragmentation were analyzed by flow cytometry using PI staining, as described before. Cells (2 × 10^5 cells/well) were pre-incubated overnight in 6-well plates and then treated with the investigated drugs in fresh culture media (2 mL/well) for 48 h. Cells were harvested by trypsinization, fixed in 70% EtOH, stained with PI solution and analyzed by FACS Calibur (BD Bioscience, San Jose, CA, USA). The results were quantified using BD Bioscience Cell Quest Pro v.5.2.1. software (BD Bioscience). The cells appearing as a sub-G1 population (containing fragmented DNA) were considered to be apoptotic.

22Rv1 cells [2] = test: Trypan blue-based viability assay; format: cell-based, human; conditions: Homo sapiens, 48 h of treatment, mean ± SD, read-out: IC50, trypan blue staining assay
Protocol: The effect of the drugs on cell viability in terms of cellular membrane integrity was evaluated by the trypan blue exclusion assay as described before. In brief, cells (0.2 × 10^6 cells/well) were seeded in 6-well plates and incubated overnight, and the media was replaced with fresh media (1 mL/well) containing drugs at indicated concentrations. After treatment for 48 h, the cells were harvested by trypsinization, stained with trypan blue and the viability was measured using an automatic Beckman Coulter Vi-CELL (Beckman Coulter, Krefeld, Germany). Trypan blue-positive cells were assumed to have damaged cellular membrane (i.e., dead), whereas trypan blue-negative cells were considered to have an intact cellular membrane (i.e., alive).

DU145 cells = test: MTT assay, DU145 cells; format: cell-based, human; conditions: Homo sapiens, DU-145; prostate cancer cells; 48 h of treatment; mean ± SD
Protocol: as §1, §2, §3

22Rv1 cells [3] = test: MTT assay, 22Rv1 cells; format: cell-based, human; conditions: Homo sapiens, 22Rv1; prostate cancer cells; 48 h of treatment; mean ± SD
Protocol: as §1, §2, §3

[4] = test system: prostate cancer cell lines (PC-3, 22Rv1, DU145 and LNCaP); test: MTT assay, mean over four prostate cancer cell lines; format: cell-based; conditions: Homo sapiens; mean of MTT IC50 in PC-3, 22Rv1, DU145 and LNCaP; from Table S1 values; read-out: mean IC50 in cancer cells
Protocol: as §3, with “Next, SAR analysis was performed to identify the structural elements that are beneficial for anticancer activity of the fascaplysin-related molecules. Considering the complex and heterogeneous nature of tumors even within the same patient, we used calculated mean IC50 values of each drug in all prostate cancer cells for further analysis (Figure 2A). To identify the drug candidates with the highest therapeutic potential, the selectivity index (SI) was calculated as mean IC50 in non-cancer cells versus mean IC50 in cancer cells (Figure 2B), or as a mean IC50 in non-cancer (MRC-9 and HEK293) cells versus mean IC50 in prostate cells (cancer PC-3, 22Rv1, DU145, LNCaP and non-cancer PNT2 cells) (Figure 2C). Finally, to estimate the effects on cellular metabolism, we compared the activity evaluated by using trypan blue assay versus MTT assay (Figure 2D). Effect” for “Effect”, “2-4” for “2–4”, “F200PRO” left out

22Rv1 cells [5] = test: Cell cycle progression, flow cytometry with PI staining; format: cell-based, human; conditions: treated at IC50 (MTT assay) for 48 h
Protocol: as §4

[6] = test system: non-cancer cell lines versus cancer cell lines; test: Selectivity index from MTT IC50s; format: cell-based, human; conditions: for Selectivity index, IC50 (non-prostate) / IC50 (prostate): mean IC50 MRC-9 and HEK-293 versus mean IC50 prostate cancer cell lines plus PNT2; for Selectivity index, IC50 (non-prostate) / IC50 (prostate) / Selectivity index, IC50 (non-cancer) / IC50 (cancer): MTT; for Selectivity index, IC50 (non-cancer) / IC50 (cancer): mean IC50 non-cancer cell lines versus mean IC50 cancer cell lines
Protocol: as §3, with “Next, SAR analysis was performed to identify the structural elements that are beneficial for anticancer activity of the fascaplysin-related molecules. Considering the complex and heterogeneous nature of tumors even within the same patient, we used calculated mean IC50 values of each drug in all prostate cancer cells for further analysis (Figure 2A). To identify the drug candidates with the highest therapeutic potential, the selectivity index (SI) was calculated as mean IC50 in non-cancer cells versus mean IC50 in cancer cells (Figure 2B), or as a mean IC50 in non-cancer (MRC-9 and HEK293) cells versus mean IC50 in prostate cells (cancer PC-3, 22Rv1, DU145, LNCaP and non-cancer PNT2 cells) (Figure 2C). Finally, to estimate the effects on cellular metabolism, we compared the activity evaluated by using trypan blue assay versus MTT assay (Figure 2D). Effect” for “Effect”, “2-4” for “2–4”, “F200PRO” left out

PNT2 cells = test: MTT assay, PNT2 cells; format: cell-based, human; conditions: Homo sapiens, PNT2; non-cancer cells; 48 h of treatment; mean ± SD
Protocol: as §1, §2, §3

MRC-9 cells = test: MTT assay, MRC-9 cells; format: cell-based, human; conditions: Homo sapiens, MRC9; non-cancer cells; 48 h of treatment; mean ± SD
Protocol: as §1, §2, §3

PC-3 cells = test: MTT assay, PC-3 cells; format: cell-based, human; conditions: Homo sapiens, PC-3; prostate cancer cells; 48 h of treatment; mean ± SD
Protocol: as §1, §2, §3

[7] = test system: double-stranded calf thymus DNA; test: Thiazole orange displacement (DNA intercalation) assay; format: binding; conditions: 1 µM calf thymus DNA base pairs, 2 µM thiazole orange; 7 min at room temperature; mean ± SD
Protocol: DNA intercalation activity of the compounds was calculated as an ability to displace thiazole orange (TO) from the double-stranded DNA. For this experiment, a mixture (100 µL) containing 1 µM of double-stranded calf thymus DNA (recalculated as a concentration of base pairs) and 2 µM of thiazole orange (TO) solved in water was prepared. Then, the investigated compounds were added up to final concentrations of 0.39–25 µM; DMSO concentration in the samples was <0.02%. Propidium iodide (PI, positive control) was added up to final concentrations of 0.039–2.5 uM. After 7 min of incubation at room temperature, TO fluorescence was monitored using a multimodal plate reader TECAN Spark (Tecan Group Ltd., Männedorf Switzerland) at the excitation λ = 480 nm; fluorescence was recorded at λ = 530 nm. The bandwidth was 10 nm. The concentration of the drug that caused a decrease in TO fluorescence by 50% (EC50) was determined by approximating the experimental data using a non-linear regression algorithm and calculated using the GraphPad Prism software v.9.1.1 (GraphPad Software, San Diego, CA, USA).

| Structure (SMILES) | IC50 (LNCaP cells) [nM] | % of sub-G1 apoptotic cells (at IC50) (22Rv1 cells [1]) [%] | IC50 (22Rv1 cells [2]) [nM] | IC50 (DU145 cells) [nM] | IC50 (22Rv1 cells [3]) [nM] | IC50 [4] [nM] | Cell cycle arrest (at IC50) (22Rv1 cells [5]) | IC50 (PC-3 cells) [nM] | EC50 [7] [nM] | IC50 (HEK-293 cells) [nM] | Selectivity index, IC50 (non-prostate) / IC50 (prostate) [6] | Selectivity index, IC50 (non-cancer) / IC50 (cancer) [6] | IC50 (PNT2 cells) [nM] | IC50 (MRC-9 cells) [nM] | Selectivity index (SI), for Figure 2B,C ([6]; both SI definitions (Figure 2B,C)) |
| --- | --- | --- | --- | --- | --- | --- | --- | --- | --- | --- | --- | --- | --- | --- | --- |
| O=C1c2ccccc2-[n+]2ccc3c([nH]c4ccc(I)cc43)c21.[Cl-] [Compound 7, 12,13-dihydro-9-iodo-13-oxopyrido[1,2-a:3,4-b’]diindol-5-ium chloride] | 171 ± 35 | 6.3±0.906 | 80 ± 4 | 319 ± 75 | 550 ± 71 | 1180 | – | 3670 ± 200 | 2140 ± 100 | 809 ± 164 | 0.89 | 0.53 | 145 ± 66 | 924 ± 132 | < 1 |
| O=C1c2ccccc2-[n+]2ccc3c([nH]c4cc(Br)ccc43)c21 [Compound 5, 10-Bromofascaplysin] | 460 ± 76 | 3.63±0.844 | 482 ± 91 | 1270 ± 206 | 500 ± 67 | 5010 | – | 17800 ± 1940 | 2010 ± 10 | 649 ± 78 | 2.57 | 1.41 | 302 ± 90 | 20300 ± 5400 | – |
| O=C1c2ccccc2-[n+]2cc(-c3ccccc3)c3c([nH]c4ccccc43)c21.[Cl-] [Compound 16, 12,13-dihydro-7-phenyl-13-oxopyrido[1,2-a:3,4-b’]diindol-5-ium chloride] | 141 ± 58 | 7±1.4 | 172 ± 74 | 491 ± 68 | 185 ± 39 | 300 | – | 391 ± 84 | 1160 ± 20 | 538 ± 69 | 1.73 | 1.73 | 434 ± 21 | 596 ± 110 | – |
| O=C1c2cc(Br)ccc2-[n+]2ccc3c([nH]c4ccccc43)c21.[Cl-] [Compound 4, 12,13-dihydro-2-bromo-13-oxopyrido[1,2-a:3,4-b’]diindol-5-ium chloride] | 349 ± 81 | 8.83±0.7 | 260 ± 54 | 1900 ± 634 | 529 ± 69 | 1550 | – | 3400 ± 1890 | 1360 ± 30 | 1100 ± 74 | 1.92 | 1.34 | 820 ± 76 | 4270 ± 662 | – |

Further lines, with some results ahead:

| IC50 (LNCaP cells) [nM] | % of sub-G1 apoptotic cells (at IC50) (22Rv1 cells [1]) [%] | IC50 (22Rv1 cells [2]) [nM] | IC50 (DU145 cells) [nM] | IC50 (22Rv1 cells [3]) [nM] | IC50 [4] [nM] | Cell cycle arrest (at IC50) (22Rv1 cells [5]) | IC50 (PC-3 cells) [nM] | EC50 [7] [nM] | Structure (SMILES) | IC50 (HEK-293 cells) [nM] | Selectivity index, IC50 (non-prostate) / IC50 (prostate) [6] | Selectivity index, IC50 (non-cancer) / IC50 (cancer) [6] | IC50 (PNT2 cells) [nM] | IC50 (MRC-9 cells) [nM] | Selectivity index (SI), for Figure 2B,C ([6]; both SI definitions (Figure 2B,C)) |
| --- | --- | --- | --- | --- | --- | --- | --- | --- | --- | --- | --- | --- | --- | --- | --- |
| 283 ± 35 | 16.4±2.47 | 207 ± 74 | 444 ± 95 | 156 ± 32 | 330 | No | 429 ± 100 | – | O=C1c2ccccc2-[n+]2c(-c3ccccc3)cc3c([nH]c4ccccc43)c21.[Cl-] [Compound 20, 12,13-dihydro-6-phenyl-13-oxopyrido[1,2-a:3,4-b’]diindol-5-ium chloride] | 412 ± 66 | 1.82 | 1.74 | 440 ± 75 | 860 ± 111 | – |
| 611 ± 47 | 13.4±0.92 | 375 ± 90 | 2370 ± 450 | 271 ± 46 | 950 | – | 564 ± 98 | 1030 ± 30 | CCc1c[n+]2c(c3[nH]c4ccccc4c13)C(=O)c1ccccc1-2.[Cl-] [Compound 17, 12,13-dihydro-7-ethyl-13-oxopyrido[1,2-a:3,4-b’]diindol-5-ium chloride] | 700 ± 211 | 1.25 | 0.92 | 490 ± 90 | 1450 ± 645 | – |
| 2240 ± 810 | 14.2±0.567 | 2030 ± 609 | 2240 ± 890 | 1590 ± 514 | 2180 | – | 2670 ± 140 | 380 ± 20 | Cc1cc2c([nH]c3ccccc32)c2[n+]1-c1ccccc1C2=O.[Cl-] [Compound 19, 12,13-dihydro-6-methyl-13-oxopyrido[1,2-a:3,4-b’]diindol-5-ium chloride] | 1820 ± 387 | 1.00 | 1.23 | 3250 ± 795 | 2980 ± 930 | – |

Reference: publication PMC8949187, “Study of Structure–Activity Relationships of the Marine Alkaloid Fascaplysin and Its Derivatives as Potent Anticancer Agents” (Marine Drugs, 2022)
